In US12364733B1, “Method for treating septic shock” (Inotrem, priority 2018, dated 2025):

Test system: septic shock patients
Assay: Phase IIa clinical trial with nangibotide in septic shock patients: SOFA score evolution
Assay type: in vivo, human
Description: This was a randomized, double-blind, two-stage, placebo-controlled study. As described in FIG. 7, the study was composed of 2 stages with a similar treatment regimen, in which 0.3, 1.0 or 3.0 mg/kg/h of nangibotide (corresponding to peptide LR12, having an amino acid sequence as set forth in SEQ ID NO: 9, also known as motrem) was tested versus placebo. All patients with a diagnosis of septic shock were considered for study participation. All potential study patients underwent standard care management procedures. Patients with evidence of septic shock according to the Sepsis-3 definition (Singer et al, JAMA 2016) were considered for inclusion (i.e., patients suffering from sepsis and having (i) persisting hypotension requiring vasopressors to maintain their mean arterial pressure ≥65 mm Hg and (ii) a serum lactate level >2 mmol/L (18 mg/dL) despite adequate volume resuscitation).
After screening for eligibility, patients were randomized to one of the treatment arms. Then, they received either a 5 mg/kg loading dose of nangibotide over 15 minutes followed by a continuous intravenous (i.v.) infusion of nangibotide or a matching placebo on top of standard of care. Treatment with study drug was initiated as early as possible, but no later than 24 hours after the onset of septic shock, defined by the start of vasopressor therapy. Patients were treated until 12 (±2) hours after the resolution of their septic shock (defined as vasopressor withdrawal) with a maximum treatment duration of 5 days (120 hours).
Adverse events (AEs) were coded using the MedDRA dictionary version 18.1. Treatment-emergent adverse events (TEAEs) were summarized and listed. Analysis was performed in 49 septic shock patients. The demographic and baseline characteristics were summarized in a descriptive fashion within each population: categorical variables were summarized by contingency tables (frequencies and percentages). sTREM-1 levels at day 1 were also described (mean, standard deviation, standard error, median, quartiles and range, minimum and maximum values). Mortality rates were reported by frequency and percentage. For continuous endpoints, i.e., the sequential organ failure assessment (SOFA), missing data were imputed using LOCF (Last Observation Carry-Forward). For time-to-event analyses, i.e., duration of invasive mechanical ventilation (IMV), duration of continuous renal replacement therapy (CRRT), survival, censored data techniques were utilized. In addition, a sensitivity analysis of time to event data (except survival) was performed using censoring at maximum limit for the corresponding observation period (i.e., either day 28 or day 90). […] The following comparisons were made: each nangibotide dose arm to placebo, all nangibotide doses combined versus placebo, and dose-response using an ordinal trend test. Exploratory composite endpoint: incidence (number and proportion) of patients alive at day 28 and free of vasopressor, free of IMV and free of CRRT were summarized by treatment and compared between treatments with a Fisher's exact test. For pharmacodynamic markers, log transformed data were represented as percentage change from baseline at day 5 or End of Infusion (EOI) if end of infusion was stopped before day 5. […] “All nangibotide” refers to analyses obtained by pooling data from 0.3, 1 and 3 mg/kg/h nangibotide-treated groups.

[1] = patients with high sTREM-1 at baseline (above median 433 pg/mL), Day 1, 0.3 mg/kg/h
[2] = patients with high sTREM-1 at baseline (above median 433 pg/mL), Day 1, 1.0 mg/kg/h
[3] = patients with high sTREM-1 at baseline (above median 433 pg/mL), Day 1, 3.0 mg/kg/h
[4] = patients with high sTREM-1 at baseline (above median 433 pg/mL), Day 1, all nangibotide doses pooled
[5] = patients with high sTREM-1 at baseline (above median 433 pg/mL), Day 2, 0.3 mg/kg/h
[6] = patients with high sTREM-1 at baseline (above median 433 pg/mL), Day 2, 1.0 mg/kg/h
[7] = patients with high sTREM-1 at baseline (above median 433 pg/mL), Day 2, 3.0 mg/kg/h
[8] = patients with high sTREM-1 at baseline (above median 433 pg/mL), Day 2, all nangibotide doses pooled
[9] = patients with high sTREM-1 at baseline (above median 433 pg/mL), Day 3, 0.3 mg/kg/h
[10] = patients with high sTREM-1 at baseline (above median 433 pg/mL), Day 3, 1.0 mg/kg/h
[11] = patients with high sTREM-1 at baseline (above median 433 pg/mL), Day 3, 3.0 mg/kg/h
[12] = patients with high sTREM-1 at baseline (above median 433 pg/mL), Day 3, all nangibotide doses pooled
[13] = patients with high sTREM-1 at baseline (above median 433 pg/mL), Day 4, 0.3 mg/kg/h
[14] = patients with high sTREM-1 at baseline (above median 433 pg/mL), Day 4, 1.0 mg/kg/h
[15] = patients with high sTREM-1 at baseline (above median 433 pg/mL), Day 4, 3.0 mg/kg/h
[16] = patients with high sTREM-1 at baseline (above median 433 pg/mL), Day 4, all nangibotide doses pooled
[17] = patients with high sTREM-1 at baseline (above median 433 pg/mL), Day 5, 1.0 mg/kg/h
[18] = patients with low sTREM-1 at baseline (below median 433 pg/mL), Day 1, 0.3 mg/kg/h
[19] = patients with low sTREM-1 at baseline (below median 433 pg/mL), Day 1, 1.0 mg/kg/h
[20] = patients with low sTREM-1 at baseline (below median 433 pg/mL), Day 1, 3.0 mg/kg/h
[21] = patients with low sTREM-1 at baseline (below median 433 pg/mL), Day 1, all nangibotide doses pooled
[22] = patients with low sTREM-1 at baseline (below median 433 pg/mL), Day 2, 0.3 mg/kg/h
[23] = patients with low sTREM-1 at baseline (below median 433 pg/mL), Day 2, 1.0 mg/kg/h
[24] = patients with low sTREM-1 at baseline (below median 433 pg/mL), Day 2, 3.0 mg/kg/h
[25] = patients with low sTREM-1 at baseline (below median 433 pg/mL), Day 2, all nangibotide doses pooled
[26] = patients with low sTREM-1 at baseline (below median 433 pg/mL), Day 3, 0.3 mg/kg/h
[27] = patients with low sTREM-1 at baseline (below median 433 pg/mL), Day 3, 1.0 mg/kg/h

nangibotide (LQEEDAGEYGCM; TLT-1 peptide)
nangibotide efficacy by baseline sTREM-1 subgroup (patients with baseline sTREM-1 above the median (above 433 pg/mL), pharmacodynamic parameters, medical support, SOFA score): more pronounced | SOFA score evolution (change versus baseline, LOCF), LSMean (SE) [1]: 0.16 (0.60) | SOFA score, estimated difference (SE) vs. placebo [1]: 0.14 (0.90) | SOFA score evolution (change versus baseline, LOCF), LSMean (SE) [2]: −0.50 (0.59) | SOFA score, estimated difference (SE) vs. placebo [2]: −0.52 (0.89) | SOFA score evolution (change versus baseline, LOCF), LSMean (SE) [3]: −0.38 (0.51) | SOFA score, estimated difference (SE) vs. placebo [3]: −0.40 (0.84) | SOFA score evolution (change versus baseline, LOCF), LSMean (SE) [4]: −0.24 (0.33) | SOFA score, estimated difference (SE) vs. placebo [4]: −0.26 (0.74) | SOFA score evolution (change versus baseline, LOCF), LSMean (SE) [5]: −1.52 (0.80) | SOFA score, estimated difference (SE) vs. placebo [5]: −1.14 (1.21) | SOFA score evolution (change versus baseline, LOCF), LSMean (SE) [6]: −2.00 (0.80) | SOFA score, estimated difference (SE) vs. placebo [6]: −1.63 (1.19) | SOFA score evolution (change versus baseline, LOCF), LSMean (SE) [7]: −0.50 (0.69) | SOFA score, estimated difference (SE) vs. placebo [7]: −0.13 (1.13) | SOFA score evolution (change versus baseline, LOCF), LSMean (SE) [8]: −1.34 (0.44) | SOFA score, estimated difference (SE) vs. placebo [8]: −0.97 (1.00) | SOFA score evolution (change versus baseline, LOCF), LSMean (SE) [9]: −2.73 (0.89) | SOFA score, estimated difference (SE) vs. placebo [9]: −2.64 (1.34) | SOFA score evolution (change versus baseline, LOCF), LSMean (SE) [10]: −2.00 (0.89) | SOFA score, estimated difference (SE) vs. placebo [10]: −1.90 (1.32) | SOFA score evolution (change versus baseline, LOCF), LSMean (SE) [11]: −0.39 (0.77) | SOFA score, estimated difference (SE) vs. placebo [11]: −0.30 (1.25) | SOFA score evolution (change versus baseline, LOCF), LSMean (SE) [12]: −1.71 (0.49) | SOFA score, estimated difference (SE) vs. placebo [12]: −1.61 (1.11) | SOFA score evolution (change versus baseline, LOCF), LSMean (SE) [13]: −3.22 (0.94) | SOFA score, estimated difference (SE) vs. placebo [13]: −2.70 (1.41) | SOFA score evolution (change versus baseline, LOCF), LSMean (SE) [14]: −1.83 (0.93) | SOFA score, estimated difference (SE) vs. placebo [14]: −1.31 (1.39) | SOFA score evolution (change versus baseline, LOCF), LSMean (SE) [15]: −0.51 (0.81) | SOFA score, estimated difference (SE) vs. placebo [15]: 0.00 (1.31) | SOFA score evolution (change versus baseline, LOCF), LSMean (SE) [16]: −1.85 (0.52) | SOFA score, estimated difference (SE) vs. placebo [16]: −1.34 (1.16) | SOFA score evolution (change versus baseline, LOCF), LSMean (SE) (patients with high sTREM-1 at baseline (above median 433 pg/mL), Day 5, 0.3 mg/kg/h): −3.20 (0.90) | SOFA score, estimated difference (SE) vs. placebo (patients with high sTREM-1 at baseline (above median 433 pg/mL), Day 5, 0.3 mg/kg/h, 0.3 mg/kg): −2.85 (1.36) | SOFA score, estimated difference (SE) vs. placebo (patients with high sTREM-1 at baseline (above median 433 pg/mL), Day 5, 0.3 mg/kg/h, listed as nangibotide, 0.3 mg/kg): −2.85 | SOFA score evolution (change versus baseline, LOCF), LSMean (SE) [17]: −1.83 (0.90) | SOFA score, estimated difference (SE) vs. placebo [17]: −1.48 (1.34) | SOFA score evolution (change versus baseline, LOCF), LSMean (SE) (patients with high sTREM-1 at baseline (above median 433 pg/mL), Day 5, 3.0 mg/kg/h): −0.51 (0.78) | SOFA score, estimated difference (SE) vs. placebo (patients with high sTREM-1 at baseline (above median 433 pg/mL), Day 5, 3.0 mg/kg/h, 3 mg/kg): −0.16 (1.27) | SOFA score, estimated difference (SE) vs. placebo (patients with high sTREM-1 at baseline (above median 433 pg/mL), Day 5, 3.0 mg/kg/h, listed as nangibotide, 3 mg/kg): −0.16 | SOFA score evolution (change versus baseline, LOCF), LSMean (SE) (patients with high sTREM-1 at baseline (above median 433 pg/mL), Day 5, all nangibotide doses pooled): −1.85 (0.50) | dose response of SOFA score difference vs. placebo (patients with high sTREM-1 at baseline, 0.3 vs 3 mg/kg/h): inverse dose response | SOFA score evolution (change versus baseline, LOCF), LSMean (SE) [18]: −1.40 (0.80) | SOFA score, estimated difference (SE) vs. placebo [18]: 0.29 (1.13) | SOFA score evolution (change versus baseline, LOCF), LSMean (SE) [19]: −0.01 (0.88) | SOFA score, estimated difference (SE) vs. placebo [19]: 1.67 (1.20) | SOFA score evolution (change versus baseline, LOCF), LSMean (SE) [20]: −0.35 (1.06) | SOFA score, estimated difference (SE) vs. placebo [20]: 1.33 (1.33) | SOFA score evolution (change versus baseline, LOCF), LSMean (SE) [21]: −.059 (0.53) | SOFA score, estimated difference (SE) vs. placebo [21]: 1.10 (0.96) | SOFA score evolution (change versus baseline, LOCF), LSMean (SE) [22]: −2.99 (0.92) | SOFA score, estimated difference (SE) vs. placebo [22]: −0.86 (1.30) | SOFA score evolution (change versus baseline, LOCF), LSMean (SE) [23]: −1.62 (1.02) | SOFA score, estimated difference (SE) vs. placebo [23]: 0.51 (1.38) | SOFA score evolution (change versus baseline, LOCF), LSMean (SE) [24]: −1.87 (1.22) | SOFA score, estimated difference (SE) vs. placebo [24]: 0.26 (1.53) | SOFA score evolution (change versus baseline, LOCF), LSMean (SE) [25]: −2.16 (0.61) | SOFA score, estimated difference (SE) vs. placebo [25]: −0.03 (1.11) | SOFA score evolution (change versus baseline, LOCF), LSMean (SE) [26]: −2.68 (1.02) | SOFA score, estimated difference (SE) vs. placebo [26]: −0.57 (1.44) | SOFA score evolution (change versus baseline, LOCF), LSMean (SE) [27]: −1.51 (1.13) | SOFA score, estimated difference (SE) vs. placebo [27]: 0.61 (1.53)
